From paper PMC9917099, “The Mycotoxin Patulin Inhibits the Mitochondrial Carnitine/Acylcarnitine Carrier (SLC25A20) by Interaction with Cys136 Implications for Human Health” (International Journal of Molecular Sciences, 2023)
Where “and” joins values, the source holds several entries; their conditions need not be identical. Equal entries are not always repeated.

How the values were obtained:
[1] = molecular target: T1, native mitochondrial carnitine/acylcarnitine carrier (CAC, SLC25A20) (Rattus norvegicus, UniProt P97521); test: [3H]-carnitine/carnitine antiport in proteoliposomes reconstituted with native CAC extracted from rat liver mitochondria; assay type: biochemical; conditions: PAT incubated 30 min, 0.1 mM [3H]carnitine 10 min, read-out: IC50 of CAC inhibition
T1 construct: the native protein extracted from rat liver mitochondria; from tissue; host or cells: rat liver mitochondria (Triton X-100 extract)
T1 sequence (P97521 1-301): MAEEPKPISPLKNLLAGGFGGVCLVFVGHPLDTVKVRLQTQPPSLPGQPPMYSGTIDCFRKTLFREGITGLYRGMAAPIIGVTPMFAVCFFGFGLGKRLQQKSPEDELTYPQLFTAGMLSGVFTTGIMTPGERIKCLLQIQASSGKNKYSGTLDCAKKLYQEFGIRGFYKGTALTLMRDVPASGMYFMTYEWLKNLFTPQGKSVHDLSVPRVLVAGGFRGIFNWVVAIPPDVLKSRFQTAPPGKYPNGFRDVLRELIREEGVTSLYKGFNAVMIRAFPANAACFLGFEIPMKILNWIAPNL
Protocol: For studying the effect of PAT on the native mitochondrial CAC, a dose–response analysis on the rat liver-extracted mitochondria was performed. Aliquots of the mitochondrial extract (0.3 mg of total proteins) were reconstituted in liposomes and incubated for 30 min with several concentrations of PAT before starting the transport assay as [^3H]-carnitine/carnitine antiport (see Materials and Methods).
Figure 1 Effect of Patulin on the native carnitine/acylcarnitine carrier (CAC). (A) Dose-response analysis of proteoliposomes reconstituted with the CAC extracted from rat liver mitochondria (0.3 mg of total proteins) and incubated with PAT at the indicated concentrations for 30 min, before measuring the transport activity by adding 0.1 mM [^3H] carnitine for 10 min as described in Materials and Methods. The percentage of residual activity compared to control, without PAT treatment, is reported. […]
For the transport assay, 550 μL of proteoliposomes were passed through a Sephadex G-75 column in order to remove the external substrate. […] After finishing the transport reaction, the external radiolabel substrate was removed by gel filtration chromatography (Sephadex G-75), and the intraliposomal radioactivity was measured by liquid scintillation. Transport was measured at 25 °C. […] Transport rates were measured in 10 min, i.e., within the initial linear range of the time course.

[2] = molecular target: T2, CAC in intact rat liver mitochondria (Rattus norvegicus, UniProt P97521); test: Treatment of intact rat liver mitochondria, then solubilization, reconstitution in proteoliposomes and carnitine antiport assay; assay type: biochemical
T2 construct: the native protein extracted from rat liver mitochondria; from tissue; host or cells: rat liver mitochondria (Triton X-100 extract)
T2 sequence (P97521 1-301): T1 sequence (P97521 1-301)
Protocol: Figure 1 Effect of Patulin on the native carnitine/acylcarnitine carrier (CAC). (A) Dose-response analysis of proteoliposomes reconstituted with the CAC extracted from rat liver mitochondria (0.3 mg of total proteins) and incubated with PAT at the indicated concentrations for 30 min, before measuring the transport activity by adding 0.1 mM [^3H] carnitine for 10 min as described in Materials and Methods. The percentage of residual activity compared to control, without PAT treatment, is reported. The values are the means ± SD from three independent experiments. (B) Rat liver mitochondria (5 mg/100 μL) were incubated or not (control) for 60 min, with Patulin (60 μM) or GSH (5 mM) as indicated. Upon treatment, the unreacted drug was removed by washing the mitochondria in PBS 1X and then 0.3 mg mitochondria were solubilized by 3% TX-100, 10 mM PIPES pH 7.0 and reconstituted in proteoliposomes for transport assay as indicated in (A) and Materials and Methods. Black and white bars indicate without or with the addition of 5 mM dithioerythritol (DTE) 1 min before the transport assay to aliquots of each sample.
The effect of PAT on the CAC at 60 µM concentration was also detected in intact rat liver mitochondria. Upon treatment (60 min), the mitochondria were solubilized in Triton X-100 and 0.3 mg of mitochondrial extract were reconstituted in proteoliposomes for testing the transport activity of CAC (see above). […] Aliquots of intact mitochondria incubated with PAT were treated also with reduced GSH to verify whether this physiological SH-reducing agent was able to reverse the mycotoxin-protein interactions.
The recombinant CAC proteins were reconstituted in proteoliposomes as previously described. Rat liver mitochondria after purification, using the standard procedure of cell disruption and differential centrifugation were solubilized with 3% Triton X-100 in a PIPES buffer (10 mM) at pH 7.0. Herein, the mitochondrial extract (0.3 mg) were reconstituted in the liposomes as above described for the mitochondrial CAC recombinant protein, in the absence of reducing agents. The concentration of intraliposomal carnitine was 15 mM in all samples.
For the transport assay, 550 μL of proteoliposomes were passed through a Sephadex G-75 column in order to remove the external substrate. Six hundred μL of the turbid eluate were collected, divided into samples of 100 μL each, and used for transport measurement by the inhibitor-stop method. Transport was started as homoexchange by adding 0.1 mM [^3H]-carnitine to proteoliposomes containing 15 mM carnitine and, at the indicated time interval, stopped by 1.5 mM NEM (N-ethylmaleimide). The inhibitor was added together with the labelled substrate at time zero in the control samples. After finishing the transport reaction, the external radiolabel substrate was removed by gel filtration chromatography (Sephadex G-75), and the intraliposomal radioactivity was measured by liquid scintillation. Transport was measured at 25 °C. The experimental values were corrected by subtracting the controls. Transport rates were measured in 10 min, i.e., within the initial linear range of the time course.

O=C1C=C2C(=CCOC2O)O1 (stereo not drawn) [PAT, 4-hydroxy-4H-furo [3,2c] pyran-2 [6H] -one]
IC50 [1]: 55 µM and ~50 µM
inhibition at 60 µM ([2]; 60 µM PAT, 60 min, intact rat liver mitochondria, read-out: inhibition of CAC transport activity compared to control): ~50%
recovery of transport activity on addition of GSH after PAT treatment ([2]; 60 µM PAT, then 5 mM GSH): did not lead to a recovery
reversal of PAT binding by DTE ([2]; 5 mM DTE added 1 min before transport assay): No reverse binding
effect of GSH added to mitochondria before PAT incubation on PAT inhibition ([2]; 5 mM GSH before 60 µM PAT): prevented
IC50 ([2]; intact rat mitochondria): 60 µM
